13 molecules from ChEMBL document CHEMBL1149286 (J Med Chem, 2004) can be followed below.

Assay [1] concerns the target 5-hydroxytryptamine receptor 7 (Rattus norvegicus, UniProt P32305). Put plainly: Displacement of [3H]LSD from rat recombinant 5HT7 receptor expressed in HEK293 cells. It counts as cell-based. (Loss of bound radioactivity is the signal in a displacement assay; it reports binding, not function.)
In assay [2] the target is 5-hydroxytryptamine receptor 2A (Rattus norvegicus) (UniProt P14842). The assay can be described thus: (§1) Displacement of [3H]ketanserin from 5HT2A receptor in Wistar Han rat cortex membranes. Type of assay: cell membranes. The following applies: Membrane.
5-hydroxytryptamine receptor 2A (Rattus norvegicus), sequence (P14842 whole entry): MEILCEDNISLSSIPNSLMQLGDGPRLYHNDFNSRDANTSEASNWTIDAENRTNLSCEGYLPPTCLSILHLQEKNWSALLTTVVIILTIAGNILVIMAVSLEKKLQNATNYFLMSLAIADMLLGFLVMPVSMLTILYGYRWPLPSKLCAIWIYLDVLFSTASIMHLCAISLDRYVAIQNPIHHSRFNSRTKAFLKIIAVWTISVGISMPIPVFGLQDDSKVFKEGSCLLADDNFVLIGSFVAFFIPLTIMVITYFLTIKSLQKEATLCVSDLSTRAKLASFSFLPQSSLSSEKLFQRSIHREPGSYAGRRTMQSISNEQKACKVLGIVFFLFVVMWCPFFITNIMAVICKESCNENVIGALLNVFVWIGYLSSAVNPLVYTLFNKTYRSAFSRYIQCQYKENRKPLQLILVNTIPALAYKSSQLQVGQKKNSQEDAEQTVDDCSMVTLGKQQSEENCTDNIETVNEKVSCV
The target of assay [3] is 5-hydroxytryptamine receptor 2A (Rattus norvegicus, UniProt P14842). The assay is described as §1. It counts as cell membranes, Membrane.
5-hydroxytryptamine receptor 2A, sequence (P14842 whole entry): as above
In assay [4] the target is T1, 5-hydroxytryptamine receptor 1A (Rattus norvegicus, UniProt P19327).
T1 sequence (P19327 whole entry): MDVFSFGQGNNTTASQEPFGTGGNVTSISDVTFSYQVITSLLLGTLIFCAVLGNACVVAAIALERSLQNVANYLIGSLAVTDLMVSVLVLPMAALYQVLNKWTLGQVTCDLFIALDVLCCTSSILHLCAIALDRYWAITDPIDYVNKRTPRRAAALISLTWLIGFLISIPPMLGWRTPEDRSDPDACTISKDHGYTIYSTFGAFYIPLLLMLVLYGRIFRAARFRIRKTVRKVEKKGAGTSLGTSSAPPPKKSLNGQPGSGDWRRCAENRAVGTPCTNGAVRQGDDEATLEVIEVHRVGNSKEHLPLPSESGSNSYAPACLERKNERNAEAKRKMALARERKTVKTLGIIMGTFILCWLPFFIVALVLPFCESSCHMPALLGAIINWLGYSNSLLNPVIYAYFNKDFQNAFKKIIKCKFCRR
Put plainly: Displacement of [3H]8-OH-DPAT from 5HT1A receptor in Wistar Han rat hippocampal membranes. It counts as cell membranes, Membrane.

Assay [5] deals with 5-hydroxytryptamine receptor 7 (Homo sapiens, UniProt P34969). The assay can be described thus: Agonist activity at 5-carboxamidotryptamine desensitized 5HT7 receptor assessed as relaxation of substance P-induced contraction of Dunkin-Hartley guinea pig ileum. The following applies: Cavia porcellus, target entry is the homologue from another species. More on the design: concentration or dose not given beside the values. Type of assay: functional, tissue-based.
5-hydroxytryptamine receptor 7 (Homo sapiens, UniProt P34969), sequence (P34969 whole entry): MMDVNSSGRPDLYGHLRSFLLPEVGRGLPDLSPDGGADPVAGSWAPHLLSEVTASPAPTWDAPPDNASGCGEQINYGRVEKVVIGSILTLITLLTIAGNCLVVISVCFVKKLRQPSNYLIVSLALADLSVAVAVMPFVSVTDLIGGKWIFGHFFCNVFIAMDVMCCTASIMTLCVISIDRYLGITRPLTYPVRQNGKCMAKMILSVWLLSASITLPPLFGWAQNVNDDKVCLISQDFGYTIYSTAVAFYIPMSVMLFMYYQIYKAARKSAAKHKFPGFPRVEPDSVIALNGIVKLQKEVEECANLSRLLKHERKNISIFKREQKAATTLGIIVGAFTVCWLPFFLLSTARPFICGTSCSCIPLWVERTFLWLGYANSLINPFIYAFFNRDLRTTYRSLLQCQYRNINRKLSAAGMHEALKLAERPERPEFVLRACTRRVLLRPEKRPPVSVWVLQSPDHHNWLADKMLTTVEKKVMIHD

The species entered for assay [6] is Rattus norvegicus. Put plainly: Selectivity for rat 5HT7 receptor over rat 5HT1A receptor.
The species named for assay [7] is Rattus norvegicus. The assay can be described thus: Selectivity for rat 5HT7 receptor over rat 5HT2A receptor.

5-hydroxytryptamine receptor 7 (Rattus norvegicus, UniProt P32305), sequence (P32305 whole entry): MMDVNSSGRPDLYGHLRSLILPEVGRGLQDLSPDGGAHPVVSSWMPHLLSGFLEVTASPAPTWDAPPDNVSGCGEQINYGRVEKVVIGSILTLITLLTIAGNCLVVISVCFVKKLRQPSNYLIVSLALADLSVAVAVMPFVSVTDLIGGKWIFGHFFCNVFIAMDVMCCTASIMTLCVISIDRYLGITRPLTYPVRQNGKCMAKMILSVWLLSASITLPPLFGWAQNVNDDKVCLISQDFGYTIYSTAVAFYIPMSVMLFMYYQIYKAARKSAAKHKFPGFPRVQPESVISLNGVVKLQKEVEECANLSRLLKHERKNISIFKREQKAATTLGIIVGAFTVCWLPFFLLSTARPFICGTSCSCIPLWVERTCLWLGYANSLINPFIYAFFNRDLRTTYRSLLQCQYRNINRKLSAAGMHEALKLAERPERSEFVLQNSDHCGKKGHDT

Broadly, the Ki is a measure of affinity in units of concentration, obtained from inhibition or displacement. For the molecule `COc1ccc2oc(N3CCN(CCCCCC(=O)NC4CCCc5ccccc54)CC3)nc2c1` (centres undefined), the Ki in assay [1] turned out to be 704 nM. In the case of `CS(=O)(=O)c1ccccc1N1CCN(CCCCCC(=O)NC2CCCc3ccccc32)CC1` (centres undefined), in assay [2], the Activity was 38%. Further, in assay [3], the Ki is more than 4000 nM. As to `O=C(CCCCCN1CCN(c2nc3ccccc3[nH]2)CC1)NC1CCCc2ccccc21` (centres undefined), the Ki in assay [4] was determined as 2600 nM; in assay [1] it was 356 nM.

With `O=C(CCCCCN1CCN(c2ccccc2O)CC1)NC1CCCc2ccccc21` (centres undefined), the Activity in assay [5] stood at 0%. On the same count and under the same terms, under `NCCc1c[nH]c2ccc(C(N)=O)cc12` stands 100%. In the case of `O=C(CCCCCN1CCN(c2nc3ccccc3o2)CC1)NC1CCCc2ccccc21` (centres undefined), the Ki in assay [1] is 820 nM.

As for `CSc1ccccc1N1CCN(CCCCCC(=O)NC2CCCc3ccccc32)CC1` (centres undefined), the Selectivity ratio is 200 in the assay listed under Rattus norvegicus [6] and more than 1000 in the assay listed under Rattus norvegicus [7]. For the same molecule, the Activity in assay [5] was 100%. For the molecule `COc1ccccc1N1CCN(CC(=O)NC2CCCc3c(OC)cccc32)CC1` (centres undefined), in assay [1], the Ki was more than 1000 nM. As for `COc1ccccc1N1CCN(CCCCCC(=O)NC2CCCc3ccccc32)CC1` (centres undefined), the Activity in assay [5] worked out at 91%. `O=C(CCCCCN1CCN(c2noc3ccccc23)CC1)NC1CCCc2ccccc21` (centres undefined): the figures for the Ki in assay [4] and in assay [1] were 3900 nM and 125 nM, respectively.

The molecule `NC(=O)c1ccccc1N1CCN(CCCCCC(=O)NC2CCCc3ccccc32)CC1` (centres undefined) registered an Activity in assay [2] of 9%. In assay [3], this molecule came in with a Ki of more than 4000 nM. On to `Cc1ccccc1N1CCN(CCCCCC(=O)NC2CCCc3ccccc32)CC1` (centres undefined), for which, in assay [5], the Activity is 98%. Turning to `CC(=O)c1ccccc1N1CCN(CCCCCC(=O)NC2CCCc3ccccc32)CC1` (centres undefined), the Activity in assay [5] amounted to 79%.
